Test results as given in ChEMBL document CHEMBL2062501 (ACS Med Chem Lett, 2012).

What was measured:
marmosets [1] = experiment: Antimigraine activity in marmosets assessed as inhibition of alphaCGRP-induced increase in facial blood flow at 10 mg/kg, po by laser Doppler flowmetry; format: functional; conditions: Callitrichinae sp., in Callithrix jacchus
[2] = molecular target: T1, Calcitonin gene-related peptide type 1 receptor (Homo sapiens, UniProt O60894+Q16602); experiment: Displacement of [125I]-CGRP from CGRP receptor in human SK-N-MC cells; format: cell-based
marmosets [3] = experiment: Antimigraine activity in marmosets assessed as inhibition of human alphaCGRP-induced increase in facial blood flow at 7 mg/kg, sc measured after 60 mins by laser Doppler flowmetry; format: functional; conditions: Callitrichinae sp., 1 h, route subcutaneous
marmosets [4] = experiment: Antimigraine activity in marmosets assessed as inhibition of human alphaCGRP-induced increase in facial blood flow at 7 mg/kg, sc measured after 105 mins by laser Doppler flowmetry; format: functional; conditions: Callitrichinae sp., 1.75 h, route subcutaneous
[5] = molecular target: T1, Calcitonin gene-related peptide type 1 receptor; experiment: Antagonist activity at CGRP receptor in human SK-N-MC cells assessed as inhibition of CGRP-stimulated cAMP production; format: functional, cell-based
[6] = Permeability of the compound at pH 5.5 by PAMPA; format: ADME; conditions: read-out: permeability
[7] = Permeability of the compound at pH 7.4 by PAMPA; format: ADME; conditions: read-out: permeability
[8] = Oral bioavailability in rat at 10 mg/kg; format: ADME, organism-based; conditions: in vivo
[9] = Oral bioavailability in dog at 10 mg/kg; format: ADME, organism-based, Canis lupus familiaris; conditions: in vivo
[10] = Oral bioavailability in cynomolgus monkey at 10 mg/kg; format: ADME, organism-based, Macaca fascicularis; conditions: in vivo
[11] = Metabolic stability of the compound in human liver microsomes assessed as compound remaining at 0.5 uM after 10 mins; format: ADME, Microsome; conditions: read-out: Stability
[12] = Half life in human liver microsomes at 0.5 uM; format: ADME, Microsome
[13] = Plasma concentration on marmosets at 7 mg/kg, sc measured after 60 mins; format: ADME, organism-based; set-up: dose 7 mg/kg, route subcutaneous; conditions: callitrichinae sp.
[14] = Plasma concentration on marmosets at 7 mg/kg, sc measured after 105 mins; format: ADME, organism-based; set-up: dose 7 mg/kg, route subcutaneous; conditions: callitrichinae sp.

T1 sequence (Q16602 whole entry, one chain of several): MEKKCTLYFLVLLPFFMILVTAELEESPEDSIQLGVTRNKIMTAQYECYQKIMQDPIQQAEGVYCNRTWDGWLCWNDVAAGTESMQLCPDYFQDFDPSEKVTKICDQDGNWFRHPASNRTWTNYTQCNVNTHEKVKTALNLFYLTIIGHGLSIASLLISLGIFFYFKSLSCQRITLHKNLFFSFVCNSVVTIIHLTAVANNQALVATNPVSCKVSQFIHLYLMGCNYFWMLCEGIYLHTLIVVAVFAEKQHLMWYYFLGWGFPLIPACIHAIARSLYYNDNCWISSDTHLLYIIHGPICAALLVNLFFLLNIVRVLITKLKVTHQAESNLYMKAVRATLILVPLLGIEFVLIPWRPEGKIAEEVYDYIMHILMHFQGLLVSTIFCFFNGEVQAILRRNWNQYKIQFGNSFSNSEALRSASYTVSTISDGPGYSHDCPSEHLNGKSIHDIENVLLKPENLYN

SMILES | inhibition in vivo at 10 mg/kg (marmosets [1]) | Ki [2] | inhibition in vivo at 7 mg/kg (marmosets [3]) | inhibition in vivo at 7 mg/kg (marmosets [4]) | IC50 [5] | Papp [6] | Papp [7] | bioavailability [8] | bioavailability [9] | bioavailability [10] | remaining at 10 min, 0.5 µM [11] | half-life at 0.5 µM [12] | concentration at 1 h [13] | concentration at 1.75 h [14]
Cc1cc(CC(OC(=O)N2CCC(n3c(=O)[nH]c4ncccc43)CC2)c2cc(C(=O)N(C)C)cc(Cl)n2)cc2cn[nH]c12 (racemic) | 31% | 0.071 nM |  |  |  |  |  |  |  |  |  |  |  | 
O=C(O[C@H]1CC[C@H](c2cccc(F)c2F)Cc2cccnc21)N1CCC(n2c(=O)[nH]c3ncccc32)CC1 |  | 940 nM |  |  |  |  |  |  |  |  |  |  |  | 
O=C(O[C@@H]1CC[C@@H](c2cccc(F)c2F)Cc2cccnc21)N1CCC(n2c(=O)[nH]c3ncccc32)CC1 |  | 0.07 nM | 52% | 52% | 0.22 nM | 150 ×10⁻⁶ cm/s | 88 ×10⁻⁶ cm/s | 29% | 34% | 38% | 74% | 24 min | > 1000 nM | > 1500 nM
